Series [1] can be described thus: Cmax in Sprague-Dawley rat at 5 mg/kg, po. The following applies: in vivo. It counts as ADME, organism-based. Set-up: route oral, dose 5 mg/kg.
Series [2] deals with 3',5'-cyclic-AMP phosphodiesterase 4B (Homo sapiens, UniProt Q07343). Nature of the series: Inhibition of PDE4B2 (152-487) (unknown origin) expressed in Escherichia coli BL21 assessed as using [3H]-cAMP as substrate measured for 15 mins by liquid scintillation counting analysis.
Series [3] concerns Rattus norvegicus. The series can be described thus: Anti-inflammatory activity in bleomycin-induced idiopathic pulmonary fibrotic activity Sprague-Dawley rat model assessed as decrease in NO production in lungs at 10 mg/kg, po treated for 28 consecutive days. It counts as functional, organism-based.
In the next series the test system is A549. The series can be described thus: Anti-idiopathic pulmonary fibrotic activity in human A549 cells assessed as reduction in TGF-beta-induced fibronectin expression measured after 48 hrs by Western blot analysis. The following applies: dose 10-20 µM. Format: functional, cell-based. (In general: A western blot detects proteins with antibodies after separation by electrophoresis.)

Series [4] in a line: Toxicity in mouse assessed as change in body weight at 1.5 g/Kg, po. The settings on record: in vivo, 1500 mg/kg.
In series [5] the target is Voltage-gated inwardly rectifying potassium channel KCNH2 (Homo sapiens, UniProt Q12809). The series can be described thus: Inhibition of human ERG.
Series [6] deals with cGMP-inhibited 3',5'-cyclic phosphodiesterase 3A (Homo sapiens, UniProt Q14432). The series can be described thus: Inhibition of PDE3A (679-1087) (unknown origin) expressed in Escherichia coli BL21 assessed as using [3H]-cAMP as substrate measured for 15 mins by liquid scintillation counting analysis.
Series [7] deals with Rattus norvegicus. The series can be described thus: Anti-idiopathic pulmonary fibrotic activity in bleomycin-induced Sprague-Dawley rat model assessed as reversal of mid-expiratory flow at 10 mg/kg, po treated for 28 consecutive days relative to control. Format: functional, organism-based.
Series [8] in a line: AUC (0 to infinity) in Sprague-Dawley rat at 10 mg/kg, po. Format: ADME, organism-based. Also noted: route oral, time infinity, dose 10 mg/kg. The settings on record: in vivo.
Series [9] is described as follows: Solubility of the compound in deionized water. Format: physicochemical.
For series [10], the system named is Rattus norvegicus. Nature of the series: Anti-idiopathic pulmonary fibrotic activity in bleomycin-induced Sprague-Dawley rat model assessed as reversal of respiratory rate at 10 mg/kg, po treated for 28 consecutive days relative to control. It counts as functional, organism-based.
Series [11] is described as follows: Toxicity in dog assessed as emesis at 10 mg/kg, po. It counts as organism-based, Canis lupus familiaris. The following applies: in vivo.
For series [12], the system named is Rattus norvegicus. Nature of the series: Anti-idiopathic pulmonary fibrotic activity in bleomycin-induced Sprague-Dawley rat model assessed as decrease in alpha-smooth muscle actin protein expression of lungs at 10 mg/kg, po treated for 28 consecutive days by Western blot analysis. It counts as functional, organism-based.
Series [13] is described as follows: AUC (0 to t) in Sprague-Dawley rat at 10 mg/kg, po. It counts as ADME, organism-based. Also noted: dose 10 mg/kg. The settings on record: in vivo.
Series [14] relates to Rattus norvegicus. Nature of the series: Anti-idiopathic pulmonary fibrotic activity in bleomycin-induced Sprague-Dawley rat model assessed as inhibition of collagen deposition around trachea and cell hyperplasia at 10 mg/kg, po treated for 28 consecutive days by Hematoxylin and eosin staining based assay relative to control. Format: functional.
Series [15] is described as follows: Half life in Sprague-Dawley rat at 5 mg/kg, po. It counts as ADME, organism-based. The following applies: in vivo.
For series [16], the target named is cAMP and cAMP-inhibited cGMP 3',5'-cyclic phosphodiesterase 10A (Homo sapiens, UniProt Q9Y233). The series can be described thus: Inhibition of PDE10A2 (449-770) (unknown origin) expressed in Escherichia coli BL21 assessed as using [3H]-cAMP as substrate measured for 15 mins by liquid scintillation counting analysis.

pIC50: −log10 of the molar value. Converted amounts (≈) assume the structure as drawn. The source made the active and inactive calls. Bounds are passed on as bounds.

3',5'-cyclic-AMP phosphodiesterase 4B, sequence (Q07343 whole entry): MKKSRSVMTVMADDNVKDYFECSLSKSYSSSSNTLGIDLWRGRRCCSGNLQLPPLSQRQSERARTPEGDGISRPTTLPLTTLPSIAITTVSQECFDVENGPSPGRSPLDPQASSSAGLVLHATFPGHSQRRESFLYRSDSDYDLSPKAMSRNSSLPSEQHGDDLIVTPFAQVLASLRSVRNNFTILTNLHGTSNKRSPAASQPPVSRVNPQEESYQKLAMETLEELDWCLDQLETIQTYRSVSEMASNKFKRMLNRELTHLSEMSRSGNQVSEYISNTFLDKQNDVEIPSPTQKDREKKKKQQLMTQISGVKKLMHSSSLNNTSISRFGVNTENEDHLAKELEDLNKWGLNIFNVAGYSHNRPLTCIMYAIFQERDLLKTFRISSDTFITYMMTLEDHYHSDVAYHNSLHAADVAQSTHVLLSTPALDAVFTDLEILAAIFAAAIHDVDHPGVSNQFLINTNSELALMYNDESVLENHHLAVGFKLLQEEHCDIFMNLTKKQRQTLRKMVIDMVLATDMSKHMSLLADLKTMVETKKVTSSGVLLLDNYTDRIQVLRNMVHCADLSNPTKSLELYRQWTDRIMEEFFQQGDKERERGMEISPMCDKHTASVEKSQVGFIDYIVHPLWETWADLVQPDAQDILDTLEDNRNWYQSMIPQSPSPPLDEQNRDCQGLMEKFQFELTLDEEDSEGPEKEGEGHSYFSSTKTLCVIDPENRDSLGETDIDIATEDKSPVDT
cGMP-inhibited 3',5'-cyclic phosphodiesterase 3A, sequence (Q14432 whole entry): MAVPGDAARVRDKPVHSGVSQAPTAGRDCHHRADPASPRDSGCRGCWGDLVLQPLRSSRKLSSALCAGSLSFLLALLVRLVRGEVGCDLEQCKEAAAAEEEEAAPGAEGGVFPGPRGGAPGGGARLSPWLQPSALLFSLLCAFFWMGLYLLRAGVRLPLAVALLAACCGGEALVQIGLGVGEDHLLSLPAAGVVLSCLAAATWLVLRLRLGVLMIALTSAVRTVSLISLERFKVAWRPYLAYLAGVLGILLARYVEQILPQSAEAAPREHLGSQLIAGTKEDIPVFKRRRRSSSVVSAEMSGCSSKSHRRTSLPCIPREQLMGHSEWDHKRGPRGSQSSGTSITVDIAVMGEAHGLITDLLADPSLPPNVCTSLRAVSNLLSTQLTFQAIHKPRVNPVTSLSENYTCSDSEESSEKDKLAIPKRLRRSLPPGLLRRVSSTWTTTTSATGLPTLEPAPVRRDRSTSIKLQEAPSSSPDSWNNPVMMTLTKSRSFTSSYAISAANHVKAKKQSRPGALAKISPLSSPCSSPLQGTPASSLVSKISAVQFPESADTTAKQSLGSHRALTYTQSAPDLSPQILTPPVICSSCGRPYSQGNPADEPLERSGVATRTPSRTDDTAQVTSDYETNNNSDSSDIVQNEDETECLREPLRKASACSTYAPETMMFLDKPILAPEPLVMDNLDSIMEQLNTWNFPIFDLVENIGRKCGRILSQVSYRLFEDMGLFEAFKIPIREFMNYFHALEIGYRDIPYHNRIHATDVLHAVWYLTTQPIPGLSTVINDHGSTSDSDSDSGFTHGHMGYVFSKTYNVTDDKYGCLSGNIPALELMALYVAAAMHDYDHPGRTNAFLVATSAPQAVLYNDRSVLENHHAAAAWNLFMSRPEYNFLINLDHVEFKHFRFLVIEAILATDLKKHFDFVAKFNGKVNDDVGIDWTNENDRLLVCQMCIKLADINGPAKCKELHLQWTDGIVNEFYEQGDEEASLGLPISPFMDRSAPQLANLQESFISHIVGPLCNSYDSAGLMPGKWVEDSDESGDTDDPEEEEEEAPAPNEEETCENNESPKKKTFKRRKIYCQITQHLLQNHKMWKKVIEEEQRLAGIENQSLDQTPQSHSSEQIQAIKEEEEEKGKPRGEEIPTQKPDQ
Voltage-gated inwardly rectifying potassium channel KCNH2, sequence (Q12809 whole entry): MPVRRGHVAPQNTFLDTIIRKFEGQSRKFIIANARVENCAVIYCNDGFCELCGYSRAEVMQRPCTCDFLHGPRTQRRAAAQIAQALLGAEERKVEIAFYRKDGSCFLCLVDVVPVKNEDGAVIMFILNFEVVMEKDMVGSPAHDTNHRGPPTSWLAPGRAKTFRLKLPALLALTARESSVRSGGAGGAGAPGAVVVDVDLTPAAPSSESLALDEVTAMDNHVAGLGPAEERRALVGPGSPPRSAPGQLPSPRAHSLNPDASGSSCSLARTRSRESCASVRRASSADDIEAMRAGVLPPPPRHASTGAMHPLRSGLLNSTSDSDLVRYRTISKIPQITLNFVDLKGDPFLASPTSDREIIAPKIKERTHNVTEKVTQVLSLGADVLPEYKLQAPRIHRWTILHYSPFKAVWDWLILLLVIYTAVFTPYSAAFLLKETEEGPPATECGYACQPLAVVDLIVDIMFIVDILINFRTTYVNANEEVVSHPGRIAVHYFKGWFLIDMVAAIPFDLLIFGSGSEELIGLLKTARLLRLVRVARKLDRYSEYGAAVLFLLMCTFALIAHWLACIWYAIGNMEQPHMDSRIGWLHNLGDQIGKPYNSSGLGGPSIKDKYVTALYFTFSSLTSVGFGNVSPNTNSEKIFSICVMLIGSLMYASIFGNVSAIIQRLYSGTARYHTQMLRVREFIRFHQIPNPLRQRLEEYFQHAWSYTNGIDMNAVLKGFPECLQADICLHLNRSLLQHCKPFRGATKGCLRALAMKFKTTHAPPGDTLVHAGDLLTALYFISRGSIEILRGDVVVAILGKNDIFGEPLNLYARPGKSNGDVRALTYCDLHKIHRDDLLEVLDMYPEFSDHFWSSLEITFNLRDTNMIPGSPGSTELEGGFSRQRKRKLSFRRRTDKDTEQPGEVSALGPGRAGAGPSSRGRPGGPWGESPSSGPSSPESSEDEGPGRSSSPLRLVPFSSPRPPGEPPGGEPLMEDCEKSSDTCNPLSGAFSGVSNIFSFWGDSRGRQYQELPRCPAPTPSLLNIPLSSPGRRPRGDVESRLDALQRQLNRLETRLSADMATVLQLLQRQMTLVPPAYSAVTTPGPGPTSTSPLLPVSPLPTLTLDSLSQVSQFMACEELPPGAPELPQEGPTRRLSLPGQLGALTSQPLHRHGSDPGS
cAMP and cAMP-inhibited cGMP 3',5'-cyclic phosphodiesterase 10A, sequence (Q9Y233 whole entry): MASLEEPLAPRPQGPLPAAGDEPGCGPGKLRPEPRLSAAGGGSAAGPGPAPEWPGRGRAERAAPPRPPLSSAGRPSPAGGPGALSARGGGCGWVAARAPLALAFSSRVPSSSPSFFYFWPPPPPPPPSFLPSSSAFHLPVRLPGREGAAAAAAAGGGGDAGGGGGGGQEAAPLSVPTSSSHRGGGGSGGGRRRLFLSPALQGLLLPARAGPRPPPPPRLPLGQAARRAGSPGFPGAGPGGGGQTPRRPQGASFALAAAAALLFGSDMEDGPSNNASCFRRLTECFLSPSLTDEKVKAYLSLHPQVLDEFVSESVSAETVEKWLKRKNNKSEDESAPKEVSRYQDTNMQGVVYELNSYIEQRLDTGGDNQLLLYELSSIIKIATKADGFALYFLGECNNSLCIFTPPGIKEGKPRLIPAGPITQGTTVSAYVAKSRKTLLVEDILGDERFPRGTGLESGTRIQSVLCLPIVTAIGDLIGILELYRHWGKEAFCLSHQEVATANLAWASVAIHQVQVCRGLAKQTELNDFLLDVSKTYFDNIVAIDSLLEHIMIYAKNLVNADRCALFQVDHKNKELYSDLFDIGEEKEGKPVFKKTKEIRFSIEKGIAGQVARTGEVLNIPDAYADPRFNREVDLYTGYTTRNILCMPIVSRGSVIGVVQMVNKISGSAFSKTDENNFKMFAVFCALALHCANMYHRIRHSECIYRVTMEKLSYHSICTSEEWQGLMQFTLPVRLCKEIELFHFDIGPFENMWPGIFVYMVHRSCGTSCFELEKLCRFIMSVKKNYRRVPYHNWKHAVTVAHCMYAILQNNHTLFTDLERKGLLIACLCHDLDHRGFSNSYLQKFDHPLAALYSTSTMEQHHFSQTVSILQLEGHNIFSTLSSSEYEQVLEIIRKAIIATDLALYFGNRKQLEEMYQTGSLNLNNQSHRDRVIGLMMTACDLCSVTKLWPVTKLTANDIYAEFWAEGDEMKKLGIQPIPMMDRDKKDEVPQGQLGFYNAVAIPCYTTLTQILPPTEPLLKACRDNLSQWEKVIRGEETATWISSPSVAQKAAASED

The molecule `COc1c(OCc2ccc(F)cc2)cc2oc3cc4c(c(OC/C=C/C(=O)O)c3c(=O)c2c1CC=C(C)C)C=CC(C)(C)O4` showed a Cmax in [1] of 3850 ng/mL. In addition, the negative logarithm of the IC50 (pIC50) in [2] was 6.85; in series [5], below 4.40; in series [6], below 5.00; in [16], 6.59. Also, the outcome in the series on Rattus norvegicus [3], in the series on Rattus norvegicus [7], in the series with Rattus norvegicus [10] and in the series on Rattus norvegicus [12] was Active. Besides, the Activity entry was “Dose-Dependent Effect” in the series on A549, “Non-Toxic” in [4] and “Non-Toxic” in series [11]. The molecule also came in with an AUC(0-inf) in [8] of 2110 ng·h/mL. In series [9], this molecule registered a solubility of 1.1 µg/mL (≈ 1.83 µM). The AUC(0-t) in series [13] came to 2090 ng·h/mL. Besides, in the series on Rattus norvegicus [14], the inhibition in vivo at 10 mg/kg came to 100%. For the same molecule, the half-life in [15] was 1.55 h.

Usually Cmax stands for the maximum level reached in the sampled fluid or tissue. What is called pIC50 is the IC50 on a negative log10 scale, so that one unit is a factor of ten. By AUC(0-inf) is commonly meant the area under the concentration-time curve extrapolated to infinity. Low values mean less exposure, high ones more exposure. A word on the solubility: it is how much of the substance goes into solution per volume. A lower solubility goes with a poorly soluble substance. For orientation: AUC(0-t) means the area under the concentration-time curve up to a stated or last time point. In general, inhibition in vivo refers to the percentage by which the read-out fell short of the control. A word on the half-life: it is the time needed for the level to fall by half in the phase considered. Low readings indicate rapid decline, high ones slow decline.
